# Assay results taken from patent US8791107B2, “N-substituted oxazinopteridines and oxazinopteridinones” (Takeda Pharmaceutical Company Limited, priority 2011, dated 2014).
# Biological target: T1, PI3Kδ (Homo sapiens, UniProt O00329)
# T1 construct: The protein is full length and co-expressed with untagged PIK3R1; GST; purchased Invitrogen PV5274
# Test: PI3Kδ inhibition, modified PIK3CD Adapta TR-FRET assay
# Assay type: biochemical
# Settings: recombinant GST-tagged full length PIK3CD co-expressed with PIK3R1 (p85α); 2 μM ATP, 50 μM PIP2; read-out: PI3Kδ Inhibition (pIC50) (converted)
# Procedure: The activity of compounds as PI3Kδ inhibitors may be determined by a variety of methods, including in vitro and in vivo methods. The following in vitro assay measures a test compound's ability to inhibit PI3Kδ-mediated phosphorylation of PIP2 and ATP.
# Recombinant GST-tagged PIK3CD is purchased from Invitrogen (Part Number: PV5274). The protein is full length and co-expressed with untagged PIK3R1, phosphoinositide-3-kinase regulatory subunit 1 (p85α). The protein is stored at −20° C. in 50 mM TRIS (pH 7.5), 150 mM NaCl, 0.5 mM EDTA, 0.02% Triton® X-100, 2 mM DTT, and 50% glycerol.
# A modified PIK3CD Adapta® assay (Invitrogen, Carlsbad, Calif.) is used to measure PI3Kδ inhibition of the example compounds. The assay has two phases. In the first phase, kinase reaction components, which include the enzyme (PIK3CD), substrates (PIP2, ATP), test compound (inhibitor), and assay buffer are added to each well, and the reaction is allowed to incubate for a pre-determined period of time. […] In the presence of the inhibitor, the amount of ADP formed by the kinase reaction is reduced, and the resulting intact antibody-tracer interaction maintains a high TR-FRET signal.
# The reaction buffer contains 50 mM Hepes (pH 7.5), 3 mM MgCl2, 1 mM EGTA, 100 mM NaCl, 0.03% CHAPS; 2 mM DTT is added fresh prior to each experiment. […] Next, test compounds (2 μL) from a source plate (5% dilution plate) are introduced into the wells. The final DMSO concentration in each assay well is 1%. […] Other wells contain test compounds serially diluted across the plate 11 times for a total of 12 data points. The kinase reactions are carried out at room temperature and are initiated by the addition of 4 μL of solution containing 2 μM ATP and 50 μM PIP2. […] This emission signal is referenced or “ratioed” to the emission from Eu at 620 nm. […] The percent inhibition for a given inhibitor concentration is computed from % conversion for the reaction and for the positive and negative controls.
# T1 sequence (O00329 whole entry): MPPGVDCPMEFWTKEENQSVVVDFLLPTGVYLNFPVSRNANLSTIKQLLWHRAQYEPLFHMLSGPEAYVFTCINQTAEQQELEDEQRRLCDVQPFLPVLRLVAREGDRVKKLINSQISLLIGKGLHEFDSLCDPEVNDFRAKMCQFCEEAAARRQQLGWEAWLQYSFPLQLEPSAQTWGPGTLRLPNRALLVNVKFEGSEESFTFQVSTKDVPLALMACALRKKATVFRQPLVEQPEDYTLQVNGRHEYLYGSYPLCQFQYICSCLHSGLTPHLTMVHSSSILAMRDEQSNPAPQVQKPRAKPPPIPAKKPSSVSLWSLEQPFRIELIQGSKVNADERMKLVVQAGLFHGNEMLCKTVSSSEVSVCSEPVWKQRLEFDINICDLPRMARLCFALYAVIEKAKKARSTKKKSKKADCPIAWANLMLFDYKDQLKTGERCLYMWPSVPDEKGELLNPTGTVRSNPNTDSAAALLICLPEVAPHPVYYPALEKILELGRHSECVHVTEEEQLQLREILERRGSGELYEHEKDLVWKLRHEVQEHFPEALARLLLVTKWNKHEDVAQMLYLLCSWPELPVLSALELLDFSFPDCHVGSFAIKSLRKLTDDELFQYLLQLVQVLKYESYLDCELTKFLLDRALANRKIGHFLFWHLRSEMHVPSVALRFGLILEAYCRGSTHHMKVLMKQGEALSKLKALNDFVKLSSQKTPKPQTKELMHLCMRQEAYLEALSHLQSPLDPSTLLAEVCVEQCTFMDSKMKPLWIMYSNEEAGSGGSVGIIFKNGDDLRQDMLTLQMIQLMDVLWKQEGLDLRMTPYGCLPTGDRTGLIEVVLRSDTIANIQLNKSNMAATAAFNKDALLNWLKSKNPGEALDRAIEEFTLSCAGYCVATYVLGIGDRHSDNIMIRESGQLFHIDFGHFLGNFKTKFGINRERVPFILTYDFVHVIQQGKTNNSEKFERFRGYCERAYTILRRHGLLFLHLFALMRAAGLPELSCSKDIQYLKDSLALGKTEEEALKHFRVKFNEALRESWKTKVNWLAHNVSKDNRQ
# T1 sequence (P27986 whole entry partner): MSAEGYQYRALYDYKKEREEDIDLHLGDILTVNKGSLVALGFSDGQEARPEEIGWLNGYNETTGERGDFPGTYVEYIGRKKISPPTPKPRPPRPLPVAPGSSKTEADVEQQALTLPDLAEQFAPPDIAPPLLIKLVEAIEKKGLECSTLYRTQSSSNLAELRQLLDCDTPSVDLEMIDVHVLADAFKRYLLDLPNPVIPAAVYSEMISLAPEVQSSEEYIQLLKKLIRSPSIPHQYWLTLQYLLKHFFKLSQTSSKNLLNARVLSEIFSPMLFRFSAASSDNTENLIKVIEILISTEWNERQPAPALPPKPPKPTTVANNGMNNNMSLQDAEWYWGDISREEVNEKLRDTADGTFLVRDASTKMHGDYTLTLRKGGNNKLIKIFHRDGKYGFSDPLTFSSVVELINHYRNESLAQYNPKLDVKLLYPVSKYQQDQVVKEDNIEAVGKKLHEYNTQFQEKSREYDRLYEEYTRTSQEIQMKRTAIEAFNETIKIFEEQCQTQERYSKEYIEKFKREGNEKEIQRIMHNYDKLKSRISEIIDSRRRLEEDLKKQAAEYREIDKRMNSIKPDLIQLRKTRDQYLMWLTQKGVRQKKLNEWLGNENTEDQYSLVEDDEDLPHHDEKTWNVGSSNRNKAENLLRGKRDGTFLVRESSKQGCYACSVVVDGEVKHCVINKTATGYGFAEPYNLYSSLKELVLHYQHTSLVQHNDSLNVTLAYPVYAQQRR
row,Compound,IC50 [nM]
1,"CC(C)N(C)C(=O)CN1CC2COCCN2c2nc(-c3cccc4[nH]ccc34)ncc21 (stereo not shown) [Example 44, 2-(2-(1H-indol-4-yl)-6a,7,9,10-tetrahydro-[1,4]oxazino[3,4-h]pteridin-5(6H)-yl)-N-isopropyl-N-methylacetamide]",316
2,"CNC(=O)Nc1ccc(-c2ncc3c(n2)N2CCOC[C@H]2CN3CC(=O)NCC2CCOCC2)cc1 [Example 222, (R)-2-(2-(4-(3-methylureido)phenyl)-6a,7,9,10-tetrahydro-[1,4]oxazino[3,4-h]pteridin-5(6H)-yl)-N-((tetrahydro-2H-pyran-4-yl)methyl)acetamide]",31.6
3,"c1cc(-c2ncc3c(n2)N2CCOC[C@H]2CN3c2cccc3[nH]ccc23)c2cc[nH]c2c1 [Example 193, (R)-2,5-di(1H-indol-4-yl)-5,6,6a,7,9,10-hexahydro-[1,4]oxazino[3,4-h]pteridine]",794
4,"O=C(CN1C[C@@H]2COCCN2c2nc(-c3cccc4[nH]ccc34)ncc21)NC1CCOCC1 [Example 205, (R)-2-(2-(1H-indol-4-yl)-6a,7,9,10-tetrahydro-[1,4]oxazino[3,4-h]pteridin-5(6H)-yl)-N-(tetrahydro-2H-pyran-4-yl)acetamide]",200
5,"CCOC(=O)c1cncc(N2C[C@@H]3COCCN3c3nc(-c4cccc5[nH]ccc45)ncc32)c1 [Example 198, (R)-ethyl 5-(2-(1H-indol-4-yl)-6a,7,9,10-tetrahydro-[1,4]oxazino[3,4-h]pteridin-5(6H)-yl)nicotinate]",15.8
6,"CS(=O)(=O)c1ccc(CN2C(=O)C3COCCN3c3nc(-c4ccc5[nH]ccc5c4)ncc32)cc1 (stereo not shown) [Example 127, 2-(1H-indol-5-yl)-5-(4-(methylsulfonyl)benzyl)-6a,7,9,10-tetrahydro-[1,4]oxazino[3,4-h]pteridin-6(5H)-one]",126
7,"CS(=O)(=O)c1ccc(CN2C(=O)C3COCCN3c3nc(-c4cccc(N5CCCS5(=O)=O)c4)ncc32)cc1 (stereo not shown) [Example 132, 2-(3-(1,1-dioxidoisothiazolidin-2-yl)phenyl)-5-(4-(methylsulfonyl)benzyl)-6a,7,9,10-tetrahydro-[1,4]oxazino[3,4-h]pteridin-6(5H)-one]",6310
8,"COc1cccc(CC(=O)N2CC3COCCN3c3nc(-c4cccc5[nH]ccc45)ncc32)c1 (stereo not shown) [Example 50, 1-(2-(1H-indol-4-yl)-6a,7,9,10-tetrahydro-[1,4]oxazino[3,4-h]pteridin-5(6H)-yl)-2-(3-methoxyphenyl)ethanone]",316
9,"c1cc(-c2ncc3c(n2)N2CCOC[C@H]2CN3CCC2OCCO2)c2cc[nH]c2c1 [Example 194, (R)-5-(2-(1,3-dioxolan-2-yl)ethyl)-2-(1H-indol-4-yl)-5,6,6a,7,9,10-hexahydro-[1,4]oxazino[3,4-h]pteridine]",3.16
10,"CC(C)NC(=O)CN1CC2COCCN2c2nc(-c3cccc4[nH]ccc34)ncc21 (stereo not shown) [Example 42, 2-(2-(1H-indol-4-yl)-6a,7,9,10-tetrahydro-[1,4]oxazino[3,4-h]pteridin-5(6H)-yl)-N-isopropylacetamide]",501
11,"CS(=O)(=O)c1ccc(CN2C(=O)C3COCCN3c3nc(-c4cccc(NS(=O)(=O)C5CC5)c4)ncc32)cc1 (stereo not shown) [Example 120, N-(3-(5-(4-(methylsulfonyl)benzyl)-6-oxo-5,6,6a,7,9,10-hexahydro-[1,4]oxazino[3,4-h]pteridin-2-yl)phenyl)cyclopropanesulfonamide]",7940
12,"CNC(=O)Nc1ccc(-c2ncc3c(n2)N2CCOCC2CN3Cc2ccc(C)cc2)cc1 (stereo not shown) [Example 62, 1-methyl-3-(4-(5-(4-methylbenzyl)-5,6,6a,7,9,10-hexahydro-[1,4]oxazino[3,4-h]pteridin-2-yl)phenyl)urea]",794
13,"O=C(CN1C[C@@H]2COCCN2c2nc(-c3ccccc3CO)ncc21)NCC1CCOCC1 [Example 215, (R)-2-(2-(2-(hydroxymethyl)phenyl)-6a,7,9,10-tetrahydro-[1,4]oxazino[3,4-h]pteridin-5(6H)-yl)-N-((tetrahydro-2H-pyran-4-yl)methyl)acetamide]",5010
14,"CS(=O)(=O)c1ccc(CN2CC3COCCN3c3nc(-c4cnc5cc[nH]c5c4)ncc32)cc1 (stereo not shown) [Example 24, 5-(4-(methylsulfonyl)benzyl)-2-(1H-pyrrolo[3,2-b]pyridin-6-yl)-5,6,6a,7,9,10-hexahydro-[1,4]oxazino[3,4-h]pteridine]",63.1
15,"CS(=O)(=O)c1ccc(CN2C(=O)C3COCCN3c3nc(-c4cncc5[nH]ccc45)ncc32)cc1 (stereo not shown) [Example 144, 5-(4-(methylsulfonyl)benzyl)-2-(1H-pyrrolo[2,3-c]pyridin-4-yl)-6a,7,9,10-tetrahydro-[1,4]oxazino[3,4-h]pteridin-6(5H)-one]",2.51
16,"CC(C)Cc1nnc(C(C)N2C[C@@H]3COCCN3c3nc(-c4cccc5[nH]ccc45)ncc32)o1 (stereo partly drawn) [Example 175, (6aR)-2-(1H-indol-4-yl)-5-(1-(5-isobutyl-1,3,4-oxadiazol-2-yl)ethyl)-5,6,6a,7,9,10-hexahydro-[1,4]oxazino[3,4-h]pteridine]",1.58
17,"c1ccc(-c2nc(CN3CC4COCCN4c4nc(-c5cccc6[nH]ccc56)ncc43)co2)cc1 (stereo not shown) [Example 37, 2-(1H-indol-4-yl)-5-((2-phenyloxazol-4-yl)methyl)-5,6,6a,7,9,10-hexahydro-[1,4]oxazino[3,4-h]pteridine]",316
18,"NC(=O)c1ccc(F)cc1CN1CC2COCCN2c2nc(-c3cccc4[nH]ccc34)ncc21 (stereo not shown) [Example 75, 2-((2-(1H-indol-4-yl)-6a,7,9,10-tetrahydro-[1,4]oxazino[3,4-h]pteridin-5(6H)-yl)methyl)-4-fluorobenzamide]",316
19,"CS(=O)(=O)c1ccc(CN2C(=O)C3COCCN3c3nc(-c4ccc5[nH]c(=O)[nH]c5c4)ncc32)cc1 (stereo not shown) [Example 119, 5-(4-(methylsulfonyl)benzyl)-2-(2-oxo-2,3-dihydro-1H-benzo[d]imidazol-5-yl)-6a,7,9,10-tetrahydro-[1,4]oxazino[3,4-h]pteridin-6(5H)-one]",2510
20,"CNC(=O)Nc1ccc(-c2ncc3c(n2)N2CCOCC2C(=O)N3Cc2ccc(-n3cncn3)cc2)cc1 (stereo not shown) [Example 92, 1-(4-(5-(4-(1H-1,2,4-triazol-1-yl)benzyl)-6-oxo-5,6,6a,7,9,10-hexahydro-[1,4]oxazino[3,4-h]pteridin-2-yl)phenyl)-3-methylurea]",2
21,N[C@H]1CC[C@H](CN2C[C@@H]3COCCN3c3nc(-c4cccc5[nH]ccc45)ncc32)CC1 [Example 197],3160
22,"c1cc(-c2ncc3c(n2)N2CCOCC2CN3)c2nc[nH]c2c1 (stereo not shown) [Example 10, 2-(1H-benzo[d]imidazol-4-yl)-5,6,6a,7,9,10-hexahydro-[1,4]oxazino[3,4-h]pteridine]",3160
23,"COc1cc(-c2ncc3c(n2)N2CCOCC2C(=O)N3Cc2ccc(S(C)(=O)=O)cc2)ccn1 (stereo not shown) [Example 140, 2-(2-methoxypyridin-4-yl)-5-(4-(methylsulfonyl)benzyl)-6a,7,9,10-tetrahydro-[1,4]oxazino[3,4-h]pteridin-6(5H)-one]",631
24,"O=C(Cc1ccccc1)N1CC2COCCN2c2nc(-c3cccc4[nH]ccc34)ncc21 (stereo not shown) [Example 48, 1-(2-(1H-indol-4-yl)-6a,7,9,10-tetrahydro-[1,4]oxazino[3,4-h]pteridin-5(6H)-yl)-2-phenylethanone]",251
25,"NC(=O)c1ccc(CN2CC3COCCN3c3nc(-c4cccc5[nH]ccc45)ncc32)cc1 (stereo not shown) [Example 78, 4-((2-(1H-indol-4-yl)-6a,7,9,10-tetrahydro-[1,4]oxazino[3,4-h]pteridin-5(6H)-yl)methyl)benzamide]",20
26,"CS(=O)(=O)c1ccc(CN2C[C@@H]3COCCN3c3nc(-c4cccc5[nH]ccc45)ncc32)cc1 [Example 29, (R)-2-(1H-indol-4-yl)-5-(4-(methylsulfonyl)benzyl)-5,6,6a,7,9,10-hexahydro-[1,4]oxazino[3,4-h]pteridine]",5.01
27,"Cn1cc(NC(=O)CN2C[C@@H]3COCCN3c3nc(-c4cccc5[nH]ccc45)ncc32)cn1 [Example 206, (R)-2-(2-(1H-indol-4-yl)-6a,7,9,10-tetrahydro-[1,4]oxazino[3,4-h]pteridin-5(6H)-yl)-N-(1-methyl-1H-pyrazol-4-yl)acetamide]",50.1
28,"CC(C)(O)c1cccc(-c2ncc3c(n2)N2CCOC[C@H]2CN3CC(=O)NCC2CCOCC2)c1 [Example 83, (R)-2-(2-(3-(2-hydroxypropan-2-yl)phenyl)-6a,7,9,10-tetrahydro-[1,4]oxazino[3,4-h]pteridin-5(6H)-yl)-N-((tetrahydro-2H-pyran-4-yl)methyl)acetamide]",1000
